Reference: the NIST ThermoML archive (doi:10.1016/j.jct.2014.02.016)
± gives the expanded uncertainty stated by the source.

Legend:
[1] = refractive index (other wavelength) (dimensionless); xn = mol fraction of the nth substance listed; details: 100 kPa, Liquid, Wavelength=632.8 nm, Angle minimization by sell rotation
[2] = heat capacity at constant pressure per volume; xn = mol fraction of the nth substance listed; details: 100 kPa, Liquid, DSC Calorimetry, x1 = 0.244

Work on `CCCCCCCCCCCCC` [tridecane] + COC(=O)OC yielded a refractive index ([1]; 293.35 K, x1 = 0.073) of 1.3756 ± 0.0003, a refractive index ([1]; 293.35 K, x1 = 0.57) of 1.4085 ± 0.0003 and a refractive index ([1]; 294.57 K, x1 = 0.078) of 1.3756 ± 0.0003. For the same compound, the refractive index ([1]; 294.57 K, x1 = 0.553) was 1.4072 ± 0.0003, the refractive index ([1]; 295.8 K, x1 = 0.084) was 1.3756 ± 0.0003 and the refractive index ([1]; 295.8 K, x1 = 0.532) was 1.4057 ± 0.0003. It also gave a refractive index ([1]; 296.97 K, x1 = 0.091) of 1.3757 ± 0.0003, a refractive index ([1]; 296.97 K, x1 = 0.511) of 1.4042 ± 0.0003 and a refractive index ([1]; 298.06 K, x1 = 0.099) of 1.376 ± 0.0003. It also gave a refractive index ([1]; 298.06 K, x1 = 0.492) of 1.4028 ± 0.0003, a refractive index ([1]; 299.12 K, x1 = 0.108) of 1.3764 ± 0.0003 and a refractive index ([1]; 299.12 K, x1 = 0.467) of 1.4011 ± 0.0003. For the same compound, the refractive index ([1]; 299.84 K, x1 = 0.115) was 1.3767 ± 0.0003, the refractive index ([1]; 299.84 K, x1 = 0.452) was 1.4 ± 0.0003 and the refractive index ([1]; 300.52 K, x1 = 0.124) was 1.3772 ± 0.0003. It also gave a refractive index ([1]; 300.52 K, x1 = 0.432) of 1.3987 ± 0.0003, a refractive index ([1]; 301.09 K, x1 = 0.132) of 1.3777 ± 0.0003 and a refractive index ([1]; 301.09 K, x1 = 0.415) of 1.3975 ± 0.0003. The refractive index ([1]; 301.5 K, x1 = 0.141) was 1.3783 ± 0.0003, the refractive index ([1]; 301.5 K, x1 = 0.398) was 1.3964 ± 0.0003 and the refractive index ([1]; 301.8 K, x1 = 0.147) was 1.3787 ± 0.0003. For the same compound, the refractive index ([1]; 301.8 K, x1 = 0.386) was 1.3956 ± 0.0003, the refractive index ([1]; 302.21 K, x1 = 0.158) was 1.3795 ± 0.0003 and the refractive index ([1]; 302.21 K, x1 = 0.365) was 1.3942 ± 0.0003. For the same compound, the refractive index ([1]; 302.36 K, x1 = 0.165) was 1.38 ± 0.0003, the refractive index ([1]; 302.36 K, x1 = 0.356) was 1.3936 ± 0.0003 and the refractive index ([1]; 302.48 K, x1 = 0.17) was 1.3804 ± 0.0003. It also gave a refractive index ([1]; 302.48 K, x1 = 0.348) of 1.3931 ± 0.0004, a refractive index ([1]; 302.56 K, x1 = 0.176) of 1.3808 ± 0.0003 and a refractive index ([1]; 302.56 K, x1 = 0.341) of 1.3926 ± 0.0003. It also gave a refractive index ([1]; 302.63 K, x1 = 0.18) of 1.3811 ± 0.0003, a refractive index ([1]; 302.63 K, x1 = 0.335) of 1.3922 ± 0.0003 and a refractive index ([1]; 302.7 K, x1 = 0.184) of 1.3814 ± 0.0003. The refractive index ([1]; 302.7 K, x1 = 0.329) was 1.3918 ± 0.0003, the refractive index ([1]; 302.79 K, x1 = 0.191) was 1.382 ± 0.0003 and the refractive index ([1]; 302.79 K, x1 = 0.317) was 1.391 ± 0.0003. The refractive index ([1]; 302.83 K, x1 = 0.195) was 1.3823 ± 0.0003, the refractive index ([1]; 302.83 K, x1 = 0.311) was 1.3906 ± 0.0003 and the refractive index ([1]; 302.86 K, x1 = 0.202) was 1.3828 ± 0.0003. The refractive index ([1]; 302.86 K, x1 = 0.303) was 1.3901 ± 0.0003, the refractive index ([1]; 302.89 K, x1 = 0.206) was 1.3831 ± 0.0003 and the refractive index ([1]; 302.89 K, x1 = 0.297) was 1.3897 ± 0.0003. For the same compound, the refractive index ([1]; 302.91 K, x1 = 0.211) was 1.3835 ± 0.0003, the refractive index ([1]; 302.91 K, x1 = 0.291) was 1.3893 ± 0.0003 and the refractive index ([1]; 302.92 K, x1 = 0.214) was 1.3837 ± 0.0003. It also gave a refractive index ([1]; 302.92 K, x1 = 0.289) of 1.3891 ± 0.0003, a refractive index ([1]; 302.93 K, x1 = 0.218) of 1.384 ± 0.0003 and a refractive index ([1]; 302.93 K, x1 = 0.284) of 1.3888 ± 0.0003. It also gave a refractive index ([1]; 302.94 K, x1 = 0.223) of 1.3844 ± 0.0003, a refractive index ([1]; 302.94 K, x1 = 0.226) of 1.3846 ± 0.0003 and a refractive index ([1]; 302.94 K, x1 = 0.275) of 1.3882 ± 0.0003. The refractive index ([1]; 302.94 K, x1 = 0.278) was 1.3884 ± 0.0003, the refractive index ([1]; 304.39 K, x1 = 0.097) was 1.3728 ± 0.0003 and the refractive index ([1]; 304.39 K, x1 = 0.196) was 1.3818 ± 0.0003. For the same compound, the refractive index ([1]; 304.39 K, x1 = 0.297) was 1.389 ± 0.0003, the refractive index ([1]; 304.39 K, x1 = 0.401) was 1.3953 ± 0.0003 and the refractive index ([1]; 304.39 K, x1 = 0.497) was 1.4002 ± 0.0003. For the same compound, the refractive index ([1]; 304.39 K, x1 = 0.583) was 1.404 ± 0.0003, the refractive index ([1]; 304.39 K, x1 = 0.71) was 1.4094 ± 0.0003 and the refractive index ([1]; 304.39 K, x1 = 0.795) was 1.4126 ± 0.0003. It also gave a refractive index ([1]; 304.39 K, x1 = 0.899) of 1.4163 ± 0.0003, a heat capacity ([2]; 303.5 K) of 2056000 ± 110000 J/K/m3 and a heat capacity ([2]; 303.6 K) of 2019000 ± 110000 J/K/m3. For the same compound, the heat capacity ([2]; 303.7 K) was 1992000 ± 110000 J/K/m3, the heat capacity ([2]; 303.8 K) was 1969000 ± 100000 J/K/m3 and the heat capacity ([2]; 303.9 K) was 1958000 ± 100000 J/K/m3. It also gave a heat capacity ([2]; 304 K) of 1946000 ± 100000 J/K/m3, a heat capacity ([2]; 304.2 K) of 1942000 ± 100000 J/K/m3 and a heat capacity ([2]; 304.6 K) of 1920000 ± 100000 J/K/m3. The heat capacity ([2]; 305 K) was 1910000 ± 100000 J/K/m3, the heat capacity ([2]; 306 K) was 1891000 ± 100000 J/K/m3 and the heat capacity ([2]; 307 K) was 1874000 ± 100000 J/K/m3. It also gave a heat capacity ([2]; 308 K) of 1870000 ± 100000 J/K/m3, a heat capacity ([2]; 309 K) of 1860000 ± 99000 J/K/m3 and a heat capacity ([2]; 310 K) of 1850000 ± 99000 J/K/m3. It also gave a heat capacity ([2]; 311 K) of 1843000 ± 98000 J/K/m3, a heat capacity ([2]; 312.1 K) of 1839000 ± 98000 J/K/m3 and a heat capacity ([2]; 313 K) of 1837000 ± 98000 J/K/m3. For the same compound, the heat capacity ([2]; 315 K) was 1830000 ± 98000 J/K/m3, the heat capacity ([2]; 316 K) was 1827000 ± 98000 J/K/m3 and the heat capacity ([2]; 317 K) was 1825000 ± 97000 J/K/m3. The heat capacity ([2]; 318 K) was 1824000 ± 97000 J/K/m3, the heat capacity ([2]; 319.01 K) was 1821000 ± 97000 J/K/m3 and the heat capacity ([2]; 320 K) was 1819000 ± 97000 J/K/m3. The heat capacity ([2]; 321 K) was 1817000 ± 97000 J/K/m3, the heat capacity ([2]; 322 K) was 1815000 ± 97000 J/K/m3 and the heat capacity ([2]; 323 K) was 1816000 ± 97000 J/K/m3. It also gave a heat capacity ([2]; 324 K) of 1813000 ± 97000 J/K/m3, a heat capacity ([2]; 325 K) of 1812000 ± 97000 J/K/m3 and a heat capacity ([2]; 326 K) of 1810000 ± 97000 J/K/m3. The heat capacity ([2]; 327 K) was 1809000 ± 97000 J/K/m3, the heat capacity ([2]; 328 K) was 1809000 ± 97000 J/K/m3 and the heat capacity ([2]; 329 K) was 1808000 ± 97000 J/K/m3. It also gave a heat capacity ([2]; 330 K) of 1806000 ± 96000 J/K/m3, a heat capacity ([2]; 331 K) of 1805000 ± 96000 J/K/m3 and a heat capacity ([2]; 332 K) of 1805000 ± 96000 J/K/m3. The heat capacity ([2]; 333 K) was 1804000 ± 96000 J/K/m3, the heat capacity ([2]; 334 K) was 1802000 ± 96000 J/K/m3 and the heat capacity ([2]; 335 K) was 1801000 ± 96000 J/K/m3. For the same compound, the heat capacity ([2]; 336 K) was 1802000 ± 96000 J/K/m3, the heat capacity ([2]; 337 K) was 1801000 ± 96000 J/K/m3 and the heat capacity ([2]; 338 K) was 1798000 ± 96000 J/K/m3. The heat capacity ([2]; 339 K) was 1797000 ± 96000 J/K/m3, the heat capacity ([2]; 340 K) was 1799000 ± 96000 J/K/m3 and the heat capacity ([2]; 341.01 K) was 1798000 ± 96000 J/K/m3. The heat capacity ([2]; 342 K) was 1799000 ± 96000 J/K/m3.
